Test results from ChEMBL document CHEMBL2021911 (Bioorg Med Chem Lett, 2012).
Calls of active or inactive are those of the source. The calls are words filed in the database; no cut-off is given here.

How the values were obtained:
[1] = target: T1, Muscarinic acetylcholine receptor M2 (Homo sapiens) (UniProt P08172); experiment: Antagonist activity at human muscarinic M2 receptor assessed as remaining activity measured as percentage of maximum response generated from 80% of saturating dose of ACh at 30 uM by calcium mobilization assay; format: functional
T1 sequence (whole entry): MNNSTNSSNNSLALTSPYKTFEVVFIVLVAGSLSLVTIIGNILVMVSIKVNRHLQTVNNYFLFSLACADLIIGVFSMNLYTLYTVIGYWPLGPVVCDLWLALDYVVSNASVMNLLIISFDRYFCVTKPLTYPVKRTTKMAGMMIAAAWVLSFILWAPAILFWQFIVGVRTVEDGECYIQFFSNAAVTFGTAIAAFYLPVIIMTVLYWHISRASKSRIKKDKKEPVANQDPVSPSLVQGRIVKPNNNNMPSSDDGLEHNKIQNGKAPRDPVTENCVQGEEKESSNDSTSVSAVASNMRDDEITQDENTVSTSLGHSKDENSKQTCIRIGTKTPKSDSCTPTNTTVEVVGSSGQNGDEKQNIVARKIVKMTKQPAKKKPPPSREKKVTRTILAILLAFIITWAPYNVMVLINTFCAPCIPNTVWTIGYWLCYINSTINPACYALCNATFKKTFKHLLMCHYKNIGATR

[2] = target: T2, Muscarinic acetylcholine receptor M3 (Homo sapiens, UniProt P20309); experiment: Antagonist activity at human muscarinic M3 receptor assessed as remaining activity measured as percentage of maximum response generated from 80% of saturating dose of ACh at 30 uM by calcium mobilization assay; format: functional
Target sequence in this assay (P20309 whole entry, looked up): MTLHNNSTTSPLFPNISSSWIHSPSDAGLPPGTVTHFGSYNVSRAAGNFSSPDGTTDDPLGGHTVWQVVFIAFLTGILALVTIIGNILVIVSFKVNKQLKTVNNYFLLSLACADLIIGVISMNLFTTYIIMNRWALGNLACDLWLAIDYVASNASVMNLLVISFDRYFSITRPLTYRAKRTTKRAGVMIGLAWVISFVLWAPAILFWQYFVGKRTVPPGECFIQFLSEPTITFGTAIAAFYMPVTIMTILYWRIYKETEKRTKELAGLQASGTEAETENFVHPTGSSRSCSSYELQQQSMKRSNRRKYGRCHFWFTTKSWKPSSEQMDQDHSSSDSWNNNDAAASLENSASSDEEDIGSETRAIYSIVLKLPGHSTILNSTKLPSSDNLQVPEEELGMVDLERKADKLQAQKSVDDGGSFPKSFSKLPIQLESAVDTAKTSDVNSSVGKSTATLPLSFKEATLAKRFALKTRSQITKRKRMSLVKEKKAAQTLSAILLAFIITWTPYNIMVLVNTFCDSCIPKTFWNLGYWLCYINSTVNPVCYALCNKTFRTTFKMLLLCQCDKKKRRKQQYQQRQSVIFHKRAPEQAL

[3] = target: T3, Muscarinic acetylcholine receptor M1 (Homo sapiens) (UniProt P11229); experiment: Agonist activity at human muscarinic M1 receptor at 30 uM by calcium mobilization assay relative to acetylcholine; format: functional
T3 sequence (whole entry): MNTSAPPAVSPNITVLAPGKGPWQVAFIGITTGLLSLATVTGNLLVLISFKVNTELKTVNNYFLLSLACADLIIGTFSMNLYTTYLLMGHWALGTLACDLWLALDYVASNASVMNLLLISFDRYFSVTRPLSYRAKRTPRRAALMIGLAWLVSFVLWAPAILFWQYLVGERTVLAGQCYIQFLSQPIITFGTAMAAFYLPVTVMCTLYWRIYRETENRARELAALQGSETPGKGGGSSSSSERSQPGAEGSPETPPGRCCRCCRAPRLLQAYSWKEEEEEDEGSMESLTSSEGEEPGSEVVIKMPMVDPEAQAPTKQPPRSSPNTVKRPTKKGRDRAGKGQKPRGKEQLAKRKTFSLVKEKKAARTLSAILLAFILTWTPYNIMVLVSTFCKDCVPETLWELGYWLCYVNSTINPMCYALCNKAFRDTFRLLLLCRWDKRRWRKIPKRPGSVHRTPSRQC

[4] = target: T4, Muscarinic acetylcholine receptor M4 (Homo sapiens, UniProt P08173); experiment: Antagonist activity at human muscarinic M4 receptor by calcium mobilization assay; format: functional
T4 sequence (P08173 whole entry): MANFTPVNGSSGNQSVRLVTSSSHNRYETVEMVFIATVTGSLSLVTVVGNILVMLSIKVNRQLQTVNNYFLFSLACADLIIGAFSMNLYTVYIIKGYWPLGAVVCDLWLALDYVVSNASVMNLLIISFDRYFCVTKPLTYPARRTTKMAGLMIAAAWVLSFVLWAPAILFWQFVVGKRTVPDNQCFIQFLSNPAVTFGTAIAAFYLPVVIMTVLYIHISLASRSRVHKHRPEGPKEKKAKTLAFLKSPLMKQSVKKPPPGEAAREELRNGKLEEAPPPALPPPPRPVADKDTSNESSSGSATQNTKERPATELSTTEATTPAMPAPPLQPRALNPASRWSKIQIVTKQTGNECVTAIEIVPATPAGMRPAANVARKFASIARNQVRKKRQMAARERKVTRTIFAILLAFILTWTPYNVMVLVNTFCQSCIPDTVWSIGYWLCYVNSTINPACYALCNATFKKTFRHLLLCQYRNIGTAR

[5] = target: T5, Muscarinic acetylcholine receptor M2 (Homo sapiens, UniProt P08172); experiment: Antagonist activity at human muscarinic M2 receptor by calcium mobilization assay; format: functional
T5 sequence (P08172 whole entry): T1 sequence (whole entry)

[6] = target: T6, Muscarinic acetylcholine receptor M4 (Homo sapiens) (UniProt P08173); experiment: Antagonist activity at human muscarinic M4 receptor assessed as remaining activity measured as percentage of maximum response generated from 80% of saturating dose of ACh at 30 uM by calcium mobilization assay; format: functional
T6 sequence (whole entry): T4 sequence (P08173 whole entry)

[7] = target: T3, Muscarinic acetylcholine receptor M1 (Homo sapiens); experiment: Agonist activity at human muscarinic M1 receptor expressed in TREx293 cells assessed as increase of soluble APPalpha release at 2 uM; format: functional, cell-based; conditions: HEK293
[8] = target: T2, Muscarinic acetylcholine receptor M3; experiment: Antagonist activity at human muscarinic M3 receptor by calcium mobilization assay
Target sequence in this assay (P20309 whole entry): as the sequence (P20309 whole entry, looked up) above

[9] = target: T7, Muscarinic acetylcholine receptor M5 (Homo sapiens, UniProt P08912); experiment: Antagonist activity at human muscarinic M5 receptor by calcium mobilization assay; format: functional
T7 sequence (P08912 whole entry): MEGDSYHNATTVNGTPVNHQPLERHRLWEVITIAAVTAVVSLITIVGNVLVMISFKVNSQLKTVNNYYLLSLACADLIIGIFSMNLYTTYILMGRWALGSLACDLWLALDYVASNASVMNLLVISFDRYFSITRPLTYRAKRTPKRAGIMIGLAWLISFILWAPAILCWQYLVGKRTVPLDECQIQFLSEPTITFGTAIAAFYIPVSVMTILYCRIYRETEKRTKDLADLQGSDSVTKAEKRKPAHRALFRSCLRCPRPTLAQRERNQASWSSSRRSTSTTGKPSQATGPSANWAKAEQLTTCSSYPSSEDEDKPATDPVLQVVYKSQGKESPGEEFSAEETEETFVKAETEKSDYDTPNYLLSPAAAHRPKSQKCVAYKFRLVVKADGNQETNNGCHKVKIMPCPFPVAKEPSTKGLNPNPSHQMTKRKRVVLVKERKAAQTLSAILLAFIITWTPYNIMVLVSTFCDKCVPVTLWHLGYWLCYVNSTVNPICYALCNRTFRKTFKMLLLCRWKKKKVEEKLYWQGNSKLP

[10] = target: T3, Muscarinic acetylcholine receptor M1 (Homo sapiens); experiment: Agonist activity at human muscarinic M1 receptor at 30 uM relative to acetylcholine; format: functional
[11] = target: T8, Muscarinic acetylcholine receptor M1 (Homo sapiens, UniProt P11229); experiment: Agonist activity at human muscarinic M1 receptor; format: functional; conditions: read-out: EC50
T8 sequence (P11229 whole entry): T3 sequence (whole entry)

[12] = target: T4, Muscarinic acetylcholine receptor M4; experiment: Agonist activity at human muscarinic M4 receptor by calcium mobilization assay; format: functional
[13] = target: T5, Muscarinic acetylcholine receptor M2; experiment: Agonist activity at human muscarinic M2 receptor by calcium mobilization assay; format: functional
[14] = target: T8, Muscarinic acetylcholine receptor M1; experiment: Agonist activity at human muscarinic M1 receptor by calcium mobilization assay; format: functional
[15] = target: T2, Muscarinic acetylcholine receptor M3; experiment: Agonist activity at human muscarinic M3 receptor by calcium mobilization assay; format: functional
Target sequence in this assay (P20309 whole entry): as the sequence (P20309 whole entry, looked up) above

[16] = target: T7, Muscarinic acetylcholine receptor M5; experiment: Agonist activity at human muscarinic M5 receptor by calcium mobilization assay; format: functional
[17] = target: T1, Muscarinic acetylcholine receptor M2 (Homo sapiens); experiment: Agonist activity at human muscarinic M2 receptor at 30 uM by calcium mobilization assay relative to acetylcholine; format: functional
[18] = target: T9, Muscarinic acetylcholine receptor M5 (Homo sapiens) (UniProt P08912); experiment: Agonist activity at human muscarinic M5 receptor at 30 uM by calcium mobilization assay relative to acetylcholine; format: functional
T9 sequence (whole entry): T7 sequence (P08912 whole entry)

[19] = AUC in rat at 10 mg/kg, po; format: ADME, organism-based; design: dose 10 mg/kg, route oral; conditions: plasma
[20] = Half life in rat at 1 mg/kg, iv and 10 mg/kg, po; format: ADME, organism-based; conditions: in vivo
[21] = Volume of distribution at steady state in rat at 1 mg/kg, iv and 10 mg/kg, po; format: ADME, organism-based; conditions: in vivo, read-out: Vdss
[22] = target: Muscarinic acetylcholine receptors; M1 & M2 (Homo sapiens) (UniProt P11229+P08172); experiment: Selectivity ratio of EC50 for human muscarinic M2 receptor to EC50 for human muscarinic M1 receptor
[23] = target: T6, Muscarinic acetylcholine receptor M4 (Homo sapiens); experiment: Agonist activity at human muscarinic M4 receptor at 30 uM by calcium mobilization assay relative to acetylcholine; format: functional
[24] = Clearance in rat at 1 mg/kg, iv and 10 mg/kg, po; format: ADME, organism-based; conditions: in vivo
[25] = AUC in rat at 1 mg/kg, iv; format: ADME, organism-based; design: dose 1 mg/kg, route intravenous; conditions: plasma
[26] = target: T2, Muscarinic acetylcholine receptor M3; experiment: Agonist activity at human muscarinic M3 receptor at 30 uM by calcium mobilization assay relative to acetylcholine; format: functional
Target sequence in this assay (P20309 whole entry, looked up): as the sequence (P20309 whole entry, looked up) above

[27] = Oral bioavailability in rat at 10 mg/kg; format: ADME, organism-based; conditions: in vivo

Row | IC50 ([4]; read-out: IC50) | Activity [6] | EC50 [14] | EC50 ([16]; read-out: EC50) | Activity [18] | EC50 [13] | IC50 [5] | Compound | Activity [3] | Activity [7] | Activity [10] | EC50 [11] | EC50 [12] | IC50 [4] | EC50 [15] | also measured
1 | > 10000 nM | 48% | 18 nM | 2800 nM | 31% | Not Active | Not Active | CCOC(=O)N1C[C@H]2CC[C@@H](C1)[C@H]2NCCNC(=O)c1ccccc1 | 46% | Active | 53% | 92 nM | – | – | – | Activity [2]: 45%; IC50 [8]: > 10000 nM
2 | – | – | 2600 nM | – | – | Not Active | Not Active | CCOC(=O)N1CCC(NCCNC(=O)c2ccccc2C)CC1 | 34% | Active | 35% | 1600 nM | Not Active | Not Active | Not Active | IC50 [9]: Not Active; EC50 [16]: Not Active
3 | > 10000 nM | 40% | 96 nM | 4200 nM | 22% | Not Active | Not Active | CCOC(=O)N1C[C@H]2CC[C@@H](C1)[C@H]2NCCNC(=O)c1cccc(Cl)c1 | 58% | – | 52% | 47 nM | – | – | Not Active | –

Further lines, the compound ahead of its results:

Row | Compound | IC50 ([4]; read-out: IC50) | Activity [6] | EC50 [14] | EC50 ([16]; read-out: EC50) | Activity [18] | EC50 [13] | IC50 [5] | Activity [3] | Activity [7] | Activity [10] | EC50 [11] | EC50 [12] | IC50 [4] | EC50 [15] | also measured
4 | CCOC(=O)N1[C@@H]2CC[C@H]1C[C@@H](NCCNC(=O)c1ccccc1)C2 | 3100 nM | 2% | – | – | – | – | – | 37% | Active | 34% | 110 nM | – | – | – | Activity [1]: 15%; Activity [2]: 13%; IC50 ([5]; read-out: IC50): > 10000 nM; IC50 [8]: > 10000 nM; IC50 ([9]; read-out: IC50): 4900 nM
5 | CCOC(=O)N1C2CCC1CC(N1CCC[C@@H](NC(=O)c3ccccc3)C1)C2 (mixture of isomers) | – | – | 350 nM | > 10000 nM | 21% | – | – | 65% | Active | 75% | 840 nM | Not Active | Not Active | Not Active | EC50 ([13]; read-out: EC50): > 10000 nM; Activity [17]: 27%
6 | CCOC(=O)N1C2CCC1CC(N1CCC[C@@H](NC(=O)c3ccccc3C)C1)C2 (mixture of isomers) | – | – | 17 nM | 3700 nM | 62% | – | – | 59% | Active | 75% | 59 nM | – | – | – | EC50 ([12]; read-out: EC50): > 10000 nM; AUC [19]: 639 ng·h/mL; EC50 ([13]; read-out: EC50): 1800 nM; half-life [20]: 46 min; EC50 ([15]; read-out: EC50): > 10000 nM; Vd [21]: 11.8 L/kg; Ratio EC50 [22]: 100; Activity [23]: 28%; Activity [17]: 66%; clearance [24]: 189 mL/min/kg; AUC [25]: 92.2 ng·h/mL; Activity [26]: 36%; bioavailability [27]: 70%
7 | CCOC(=O)N1[C@@H]2CC[C@H]1C[C@H](NCCNC(=O)c1ccccc1)C2 | – | – | – | – | – | Not Active | Not Active | 57% | Active | 49% | 970 nM | Not Active | Not Active | Not Active | IC50 [9]: Not Active; EC50 [16]: Not Active
8 | CCCCC1CCN(CCCN2C(=O)COc3cc(F)ccc32)CC1 | > 10000 nM | 26% | 41 nM | 1000 nM | 28% | – | – | 81% | – | – | – | – | – | – | Activity [1]: 30%; IC50 ([5]; read-out: IC50): > 10000 nM; EC50 ([15]; read-out: EC50): 5900 nM; Activity [26]: 19%
